Laboratory results taken from patent US5569654A, “Benzodiazepinones” (Glaxo Group Limited, priority 1992, dated 1996).

Molecular target: T1, CCK-B receptor (Cavia porcellus, UniProt H0VZC5)
T1 construct: guinea pig cortex assay; from tissue; host or cells: guinea pig cortex
T1 sequence (H0VZC5 1-426): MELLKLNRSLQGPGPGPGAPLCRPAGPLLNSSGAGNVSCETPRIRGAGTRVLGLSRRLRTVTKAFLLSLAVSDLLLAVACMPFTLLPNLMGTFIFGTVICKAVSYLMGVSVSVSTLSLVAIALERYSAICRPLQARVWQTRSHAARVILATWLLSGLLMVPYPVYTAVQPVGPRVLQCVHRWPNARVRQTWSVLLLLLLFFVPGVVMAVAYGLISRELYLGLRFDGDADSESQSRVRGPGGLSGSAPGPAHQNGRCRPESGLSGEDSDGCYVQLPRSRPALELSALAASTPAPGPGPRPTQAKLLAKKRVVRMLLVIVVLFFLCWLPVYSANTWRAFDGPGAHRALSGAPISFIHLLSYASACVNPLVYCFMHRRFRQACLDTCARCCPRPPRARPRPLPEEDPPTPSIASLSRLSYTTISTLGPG
Test: CCK-B receptor binding affinity (guinea pig cortex assay)
Settings: not given
Experimental: The affinity of the compound of the invention for the CCK-B receptor has also been determined using the guinea pig codex assay as described by G Dal Fornoto et al J. Pharmacol Exp. Ther., 261 1056-1063, 1992.
The binding affinity of the compounds of the invention for the CCK-B receptor (guinea pig cortex assay) was determined using the procedure of G Dal Forno et al J. Pharmacol. Exp & Ther. 261--1056-1063. The pKi values determined with respresentative compounds of invention were as follows: […]

Row | Ki [nM] | SMILES
1 | 1.26 | COc1cccc(NC(=O)NC2N=C(CN3CCOCC3)c3ccccc3N(CC(=O)N(C)c3ccccc3)C2=O)c1 (stereo not shown) [Example 9, 2-{3-[3-(3-Methoxy-phenyl)-ureido]-5-morpholin-4-ylmethyl-2-oxo-2,3-dihydro-benzo[e][1,4]diazepin-1-yl}-N-methyl-N-phenyl-acetamide]
2 | 3.16 | C[C@@H]1CC[C@H](C)N1C(=O)CN1C(=O)C(NC(=O)Nc2cccc(C#N)c2)N=C(CN2CCOCC2)c2ccccc21 (stereo partly shown) [Example 5]
3 | 1.58 | CN(C(=O)CN1C(=O)C(NC(=O)Nc2cccc(C#N)c2)N=C(CN2CCSCC2)c2ccccc21)c1ccccc1 (stereo not shown) [Example 4, 2-{3-[3-(3-Cyano-phenyl)-ureido]-2-oxo-5-[1,4]thiazinan-4-ylmethyl-2,3-dihydro-benzo[e][1,4]diazepin-1-y}-N-methyl-N-phenyl-acetamide]
4 | 3.16 | O=C(Nc1cccc(-c2cnco2)c1)NC1N=C(CN2CCOCC2)c2ccccc2N(CC(=O)N2CCCC2)C1=O (stereo not shown) [Example 19, 1-[5-(Morpholin-4-yl-methyl)-2-oxo-1-(2-oxo-2-pyrrolidin-1-yl-ethyl)-2,3-dihydro-benzo[e][1,4]diazepin-3-yl]-3-(3-oxazol-5-yl-phenyl)-urea]
5 | 2.51 | CC(C)NCC1=NC(NC(=O)Nc2cccc(C#N)c2)C(=O)N(CC(=O)N(C)c2ccccc2)c2ccccc21 (stereo not shown) [Example 3, 2-{-[3-(3-Cyano-phenyl)ureido]-5-(isopropylamino-methyl)-2-oxo-2,3-dihydro-benzo-[e][1,4]diazepin-1-yl}-N-methyl-N-phenyl-acetamide]
6 | 1.58 | CCN(C(=O)CN1C(=O)C(NC(=O)Nc2cccc(C#N)c2)N=C(CN2CCOCC2)c2ccccc21)c1ccccc1 (stereo not shown) [Example 7, 2-{3-[3-(3-Cyano-phenyl)-ureido]-5-morpholin-4-ylmethyl-2-oxo-2,3-dihydro-benzo[e][1,4]diazepin-1yl}-N-ethyl-N-phenyl-acetamide]
7 | 2 | CN(C(=O)CN1C(=O)C(NC(=O)Nc2cccc(C#N)c2)N=C(CN2CCOCC2)c2ccccc21)c1ccc(F)cc1 (stereo not shown) [Example 6, 2-{3-[3-(3-Cyano-phenyl)-ureido]-5-morpholin-4-ylmethyl-2-oxo-2,3-dihydro-benzo-[e][1,4]diazepin-1-yl}-N-(4-fluoro-phenyl)-N-methyl-acetamide]
8 | 2.51 | COc1cccc(NC(=O)NC2N=C(CCN(C)C)c3ccccc3N(CC(=O)N(C)c3ccccc3)C2=O)c1 (stereo not shown) [Example 17]
9 | 1.26 | CN(C(=O)CN1C(=O)C(NC(=O)Nc2cccc(C#N)c2)N=C(CN2CCOCC2)c2ccccc21)c1ccccc1 (stereo not shown) [Example 18, 2-{3-[3-(3-Cyano-phenyl)-ureido]-5-morpholin-4-ylmethyl-2-oxo-2,3-dihydro-benzo [e][1,4]diazepin-1-yl}-N-methyl-N-phenyl-acetamide]
10 | 1.58 | CC(C)(C)C(=O)CN1C(=O)C(NC(=O)Nc2cccc(C#N)c2)N=C(CN2CCOCC2)c2ccccc21 (stereo not shown) [Example 8, 1-(3-Cyano-phenyl)-3-[1-(3,3-dimethyl-2-oxo-butyl)-5-morpholin-4-ylmethyl-2-oxo-2,3-dihydro-1H-benzo[e][1,4]diazepin-3-yl]-urea]
11 | 0.794 | CN(C(=O)CN1C(=O)C(NC(=O)Nc2ccccc2)N=C(CN2CCOCC2)c2ccccc21)c1ccccc1 (stereo not shown) [Example 10, N-Methyl-2-[5-morpholin-4-ylmethyl-2-oxo-3-(3-phenyl-ureido)-2,3-dihydro-benzo[e][1,4]diazepin-1-yl]-N-methyl-N-phenyl-acetamide]
12 | 3.98 | CN(C(=O)CN1C(=O)C(NC(=O)Nc2cccc(C#N)c2)N=C(CN2CCCC2)c2ccccc21)c1ccccc1 (stereo not shown) [Example 2, 2-{3-[3-(3-Cyano-phenyl)-ureido]-2-oxo-5-pyrrolidin-1-ylmethyl-2,3-dihydro-[e][1,4]diazepin-1-yl}-N-methyl-N-phenyl-acetamide]
13 | 1 | CN(C(=O)CN1C(=O)C(NC(=O)Nc2cccc(C#N)c2)N=C(CN2CCCCC2)c2ccccc21)c1ccccc1 (stereo not shown) [Example 1, 2-{3-[3-(3-Cyano-phenyl)-ureido]-2-oxo-5-piperidin-1-ylmethyl-2,3-dihydro-benzo-[e][4.1]diazepin-1-yl}-N-methyl-N-phenyl-acetamide]
14 | 1 | COc1cccc(NC(=O)NC2N=C(CN3CCOCC3)c3ccccc3N(CC(=O)N(C)c3ccccc3)C2=O)c1 (single isomer, unassigned; (+)) [Example 14, (+)-2-{3-[3-(3-Methoxy-phenyl)-ureido]-5-morpholin-4-ylmethyl-2-oxo-2.3-dihydro-benzo [e][1,4]diazepin-1-yl}-N-methyl-N-phenyl-acetamide]
15 | 6.31 | CN(C(=O)CN1C(=O)C(NC(=O)Nc2cccc(N)c2)N=C(CN2CCOCC2)c2ccccc21)c1ccccc1 (stereo not shown) [Example 13, 2-{3-[3-(3-Amino-phenyl)-ureido]-5-morpholin-4-ylmethyl-2-oxo-2,3-dihydro-benzo[e][1,4]diazepin-1-yl}-N-methyl-N-phenyl-acetamide]
16 | 0.501 | CN(C(=O)CN1C(=O)C(NC(=O)Nc2cccc(C(F)(F)F)c2)N=C(CN2CCOCC2)c2ccccc21)c1ccccc1 (stereo not shown) [Example 11, N-Methyl-2-{5-morpholin-4-ylmethyl-2-oxo-3-[3-(3-trifluoromethyl-phenyl)-ureido]-2,3-dihydro-benzo[e][1,4]diazepin-1-yl}-N-phenyl-acetamide]
17 | 5.01 | CN1CCN(CC2=NC(NC(=O)Nc3cccc(C#N)c3)C(=O)N(CC(=O)N(C)c3ccccc3)c3ccccc32)CC1 (stereo not shown) [Example 16, 2-{3-[3-(3-Cyano-phenyl)-ureido]-5-(4-methyl-piperazin-1-ylmethyl)-2-oxo-2,3-dihydro-benzo[e][1,4]diazepin-1-yl}-N-methyl-N-phenyl-acetamide]

Tested on: rats
Test: tolerability in rats
Assay type: in vivo
Settings: doses at which the compound exhibits CCK-B antagonist activity
Excerpt: (§1) The compounds of the invention are essentially non-toxic and therapeutically useful doses.

Row | SMILES | untoward effects in rats
18 | COc1cccc(NC(=O)NC2N=C(CN3CCOCC3)c3ccccc3N(CC(=O)N(C)c3ccccc3)C2=O)c1 (single isomer, unassigned; (+)) [Example 14, (+)-2-{3-[3-(3-Methoxy-phenyl)-ureido]-5-morpholin-4-ylmethyl-2-oxo-2.3-dihydro-benzo [e][1,4]diazepin-1-yl}-N-methyl-N-phenyl-acetamide] | no untoward effects were observed

Tested on: dogs
Test: tolerability in dogs
Assay type: in vivo
Settings: doses at which the compound exhibits CCK-B antagonist activity
Excerpt: as §1

Row | SMILES | untoward effects in dogs
19 | COc1cccc(NC(=O)NC2N=C(CN3CCOCC3)c3ccccc3N(CC(=O)N(C)c3ccccc3)C2=O)c1 (single isomer, unassigned; (+)) [Example 14, (+)-2-{3-[3-(3-Methoxy-phenyl)-ureido]-5-morpholin-4-ylmethyl-2-oxo-2.3-dihydro-benzo [e][1,4]diazepin-1-yl}-N-methyl-N-phenyl-acetamide] | no untoward effects were observed
